What was measured:
[1] = test system: Arabidopsis thaliana; experiment: Seed Germination Assay; type: in vivo; details: for time for 100% germination: Arabidopsis seed, 0.3 ppm test compound, 0.5% DMSO
Procedure: To determine the germination inhibition potency of the analogs, a germination assay was performed with the model plant Arabidopsis thaliana. Arabidopsis seed was sterilized by shaking for five minutes in 200 proof ethanol, followed by shaking for five minutes in a 10% bleach solution. The seeds were then washed five times in sterile, distilled, de-ionized water and suspended in 0.1% phytoagar. The tubes containing the seeds were wrapped in aluminum foil and stratified at 4° C. for at least two days. The analogs were tested in four-well plates. Each plate contained one well each of a 0.5% DMSO control, (S)-ABA, (S)-3′-methyl-ABA (Example 2) and (±)-3′-methyl-ABA (Example 4), all at a desired concentration. In a typical experiment, 18 microliters of a 100 ppm stock solution of each compound in 10% DMSO was pipetted into the designated well. Additional DMSO (28.2 microliters) and water (3.8 microliters) was added to each well, followed by the addition of 5.95 mL of ½×Murashige and Skoog media containing 1.2% Bactoagar to all the wells. This gave a total volume of 6.0 mL per well, 0.3 ppm of the test compound and final DMSO concentration of 0.5%. When the media solidified, one hundred sterile stratified Arabidopsis seeds were distributed into each well. The plates were sealed with surgical tape and placed in a growth chamber running diurnal cycles of 12 hours of light at 24° C. and 12 hours of darkness at 19° C. The plates were scanned daily at high resolution (600 dpi) until all seeds were germinated. A seed was scored as germinated once the radicle emerged. The percentage of seeds germinated each day is reported in the graph of FIG. 1. The tests at each concentration were repeated at least twice and the results were reproducible.

[2] = test system: rice seedling; details: according to Ueno, et al.; cited from earlier work
[3] = test system: (S)-ABA 8′-hydroxylase; details: according to Ueno, et al.; cited from earlier work

SMILES	time for 100% germination [1]	activity in rice seedling elongation assay relative to (S)-ABA [2]	activity in (S)-ABA 8′-hydroxylase inhibition assay relative to (S)-ABA [3]	potency at inhibiting Arabidopsis seed germination relative to (S)-ABA or (±)-3′-methyl-ABA ([1]; 0.3 ppm, FIG. 1)
CC1=C(C)C(O)(/C=C/C(C)=C\C(=O)O)C(C)(C)CC1=O (racemic) [Example 4, (±)-(2Z,4E)-5-(1-hydroxy-2,3,6,6-tetramethyl-4-oxocyclohex-2-en-1-yl)-3-methylpenta-2,4-dienoic acid]	8 days	equal activity to (S)-ABA	weaker activity than (S)-ABA	–
CC1=CC(=O)CC(C)(C)[C@@]1(O)/C=C/C(C)=C/C(=O)O [(S)-ABA, (S)-abscisic acid]	6 days	–	–	–
CC1=C(C)[C@](O)(/C=C/C(C)=C\C(=O)O)C(C)(C)CC1=O [Example 2, (2Z,4E)-((S)-1-hydroxy-2,3,6,6-tetramethyl-4-oxocyclohex-2-en-1-yl)-3-methylpenta-2,4-dienoic acid]	15 days	–	–	more potent

Reference: patent US9326508B2, “(S)-3′-methyl-abscisic acid and esters thereof” (Valent BioSciences Corporation, priority 2014, dated 2016)
